Data reported in article doi:10.1101/2025.11.20.689572v1 (biorxiv, 2025).
Where two headings read alike, the source gives them in different places.

Tests used:
CHRM5 = target: T1, CHRM5 (Homo sapiens, UniProt P08912); assay: cell-based; parameters: species or system HEK293; BRET1 beta-arrestin2 recruitment, receptor-RLuc8 and mVenus-beta-arrestin2 with GRK2; details: Assay=barr2, agonist mode, % of control agonist
T1 sequence (P08912 1-532): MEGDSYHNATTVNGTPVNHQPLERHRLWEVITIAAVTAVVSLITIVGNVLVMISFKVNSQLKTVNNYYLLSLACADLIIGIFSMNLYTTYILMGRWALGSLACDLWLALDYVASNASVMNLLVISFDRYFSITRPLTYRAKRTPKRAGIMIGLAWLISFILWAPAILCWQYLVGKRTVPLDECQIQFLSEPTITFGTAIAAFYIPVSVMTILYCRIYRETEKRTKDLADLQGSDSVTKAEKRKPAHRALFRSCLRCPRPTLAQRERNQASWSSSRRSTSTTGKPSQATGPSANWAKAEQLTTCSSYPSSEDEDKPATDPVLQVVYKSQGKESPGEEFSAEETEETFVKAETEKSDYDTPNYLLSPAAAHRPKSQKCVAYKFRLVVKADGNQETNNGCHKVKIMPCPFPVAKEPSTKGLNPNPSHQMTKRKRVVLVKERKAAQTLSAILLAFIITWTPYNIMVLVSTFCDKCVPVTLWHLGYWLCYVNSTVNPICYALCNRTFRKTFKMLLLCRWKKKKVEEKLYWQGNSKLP
Description: BRET1 assays followed prior methods.

5-HT3 = target: T2, 5-HT3 (Homo sapiens, UniProt P46098); assay: biochemical; parameters: species or system HEK293; PDSP competitive radioligand binding, membranes of transfected HEK293 cells, filtration, Ki by Cheng-Prusoff
T2 construct: gene HTR3A
T2 sequence (P46098 whole entry): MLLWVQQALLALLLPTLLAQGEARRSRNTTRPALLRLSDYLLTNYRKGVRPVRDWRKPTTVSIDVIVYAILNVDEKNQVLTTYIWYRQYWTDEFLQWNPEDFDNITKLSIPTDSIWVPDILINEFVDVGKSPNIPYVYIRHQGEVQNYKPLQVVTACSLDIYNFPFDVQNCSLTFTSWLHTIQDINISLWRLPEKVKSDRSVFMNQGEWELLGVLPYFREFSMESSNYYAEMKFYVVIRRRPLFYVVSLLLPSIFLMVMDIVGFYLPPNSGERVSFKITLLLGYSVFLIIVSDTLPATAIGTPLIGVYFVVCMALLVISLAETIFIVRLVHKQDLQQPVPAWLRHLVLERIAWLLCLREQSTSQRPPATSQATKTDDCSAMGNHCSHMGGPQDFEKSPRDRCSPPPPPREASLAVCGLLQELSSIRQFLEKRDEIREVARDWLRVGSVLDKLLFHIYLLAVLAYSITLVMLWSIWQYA
Description: (§1) Competitive radioligand binding assays were performed at the NIMH Psychoactive Drug Screening Program (PDSP) using membranes from transiently transfected HEK293 cells in 96-well format as described. Complete, target-specific protocols are available at the PDSP website (https://pdsp.unc.edu/pdspweb/?site=assays). Primary screenings were run at a single test concentration (10 µM) in quadruplicate. […] Secondary assays were conducted in triplicate using 12-point serial dilutions (0, 0.1, 0.3, 1, 3, 10, 30, 100, 300 nM; 1, 3, 10 µM). Assays were performed in a final volume of 125 µL per well in binding buffer, as detailed in the NIMH PDSP protocols (e.g., standard binding buffer: 50 mM Tris-HCl, pH 7.4, 10 mM MgCl2, 0.1 mM EDTA). Radioligand concentrations were chosen near the target-specific Kd. Total and nonspecific binding were defined in the absence and presence, respectively, of 10 µM reference ligand specific for each receptor. After 90 min incubation at room temperature, reactions were terminated by vacuum filtration onto 0.3% polyethyleneimine-pretreated UniFilter-96 GF/C Microplates using a FilterMate harvester, washed three times with ice-cold buffer (50 mM Tris HCl, pH 7.4), dried, treated with MicroScint-O [compound left out] scintillation cocktails, and counted on a MicroBeta counter. Equilibrium inhibition constants (Ki) were calculated from fitted IC50 values using the Cheng–Prusoff equation [14] with the assay-specific radioligand concentration and Kd. TABLE 1. […] Results represented mean ± SEM from a minimum of 3 independent assays, each in triplicate. ND=not determined.

DRD2 = DRD2 (Homo sapiens, UniProt P14416); assay: biochemical; parameters: species or system HEK293; PDSP competitive radioligand binding, membranes of transfected HEK293 cells, filtration, Ki by Cheng-Prusoff
Chain of DRD2 (P14416 whole entry): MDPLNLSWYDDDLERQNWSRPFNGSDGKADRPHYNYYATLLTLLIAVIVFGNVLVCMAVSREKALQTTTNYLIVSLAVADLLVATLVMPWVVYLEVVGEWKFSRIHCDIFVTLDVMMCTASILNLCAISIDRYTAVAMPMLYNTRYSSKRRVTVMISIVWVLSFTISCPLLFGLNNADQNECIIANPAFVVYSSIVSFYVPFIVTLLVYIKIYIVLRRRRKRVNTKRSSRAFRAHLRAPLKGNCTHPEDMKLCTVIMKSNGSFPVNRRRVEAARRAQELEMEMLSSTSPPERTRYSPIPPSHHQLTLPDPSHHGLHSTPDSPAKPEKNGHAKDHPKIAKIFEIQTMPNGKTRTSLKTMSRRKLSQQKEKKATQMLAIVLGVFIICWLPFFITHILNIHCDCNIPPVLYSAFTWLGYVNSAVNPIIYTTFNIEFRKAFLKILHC
Description: as §1

DRD4 = target: T3, DRD4 (Homo sapiens, UniProt P21917); assay: biochemical; parameters: species or system HEK293; PDSP competitive radioligand binding, membranes of transfected HEK293 cells, filtration, Ki by Cheng-Prusoff
T3 sequence (P21917 1-419): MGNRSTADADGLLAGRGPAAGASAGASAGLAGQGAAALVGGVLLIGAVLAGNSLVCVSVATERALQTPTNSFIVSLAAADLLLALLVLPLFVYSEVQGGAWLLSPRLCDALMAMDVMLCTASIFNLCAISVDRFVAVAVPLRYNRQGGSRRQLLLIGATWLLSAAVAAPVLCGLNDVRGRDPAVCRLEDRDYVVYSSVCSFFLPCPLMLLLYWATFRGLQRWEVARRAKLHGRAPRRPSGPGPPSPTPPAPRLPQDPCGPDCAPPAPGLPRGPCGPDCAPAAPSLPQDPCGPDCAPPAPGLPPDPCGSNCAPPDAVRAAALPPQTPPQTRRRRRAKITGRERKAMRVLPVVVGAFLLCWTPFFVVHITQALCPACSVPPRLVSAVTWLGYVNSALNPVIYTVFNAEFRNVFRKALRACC
Description: as §1

MOR = target: T4, MOR (Homo sapiens, UniProt P35372); assay: biochemical; parameters: species or system HEK293; PDSP competitive radioligand binding, membranes of transfected HEK293 cells, filtration, Ki by Cheng-Prusoff
T4 construct: gene OPRM1
T4 sequence (P35372 whole entry): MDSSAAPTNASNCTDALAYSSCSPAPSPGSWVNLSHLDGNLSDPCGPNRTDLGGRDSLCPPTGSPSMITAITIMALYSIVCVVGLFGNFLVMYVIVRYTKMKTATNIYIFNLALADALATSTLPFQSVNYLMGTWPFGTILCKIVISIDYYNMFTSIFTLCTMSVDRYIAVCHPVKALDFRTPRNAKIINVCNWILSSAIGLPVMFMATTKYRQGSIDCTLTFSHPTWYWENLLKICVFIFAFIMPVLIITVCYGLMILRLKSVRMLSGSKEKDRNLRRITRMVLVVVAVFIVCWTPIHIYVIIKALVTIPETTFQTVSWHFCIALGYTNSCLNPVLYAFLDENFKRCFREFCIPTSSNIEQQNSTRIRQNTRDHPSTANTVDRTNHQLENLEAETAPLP
Description: as §1

SERT = target: T5, SERT (Homo sapiens, UniProt P31645); assay: biochemical; parameters: species or system HEK293; PDSP competitive radioligand binding, membranes of transfected HEK293 cells, filtration, Ki by Cheng-Prusoff
T5 construct: gene SLC6A4
T5 sequence (P31645 whole entry): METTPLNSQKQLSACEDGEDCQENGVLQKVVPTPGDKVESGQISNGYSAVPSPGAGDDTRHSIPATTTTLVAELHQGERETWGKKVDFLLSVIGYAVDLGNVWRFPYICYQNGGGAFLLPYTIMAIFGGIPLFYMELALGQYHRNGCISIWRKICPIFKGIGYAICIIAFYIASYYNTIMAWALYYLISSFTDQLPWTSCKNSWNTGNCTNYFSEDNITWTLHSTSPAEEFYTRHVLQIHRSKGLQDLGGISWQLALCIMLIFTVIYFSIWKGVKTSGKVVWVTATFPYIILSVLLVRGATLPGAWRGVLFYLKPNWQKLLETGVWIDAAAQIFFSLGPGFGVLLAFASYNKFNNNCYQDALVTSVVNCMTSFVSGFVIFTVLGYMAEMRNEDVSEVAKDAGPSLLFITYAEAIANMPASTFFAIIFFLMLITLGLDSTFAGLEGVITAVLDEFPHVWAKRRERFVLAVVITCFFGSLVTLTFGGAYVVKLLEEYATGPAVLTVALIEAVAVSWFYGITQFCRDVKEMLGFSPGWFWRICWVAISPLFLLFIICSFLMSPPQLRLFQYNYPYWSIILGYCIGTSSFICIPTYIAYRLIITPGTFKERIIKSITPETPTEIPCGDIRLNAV
Description: as §1

α1B = target: T6, α1B (Homo sapiens, UniProt P35368); assay: biochemical; parameters: species or system HEK293; PDSP competitive radioligand binding, membranes of transfected HEK293 cells, filtration, Ki by Cheng-Prusoff
T6 construct: gene ADRA1B
T6 sequence (P35368 whole entry): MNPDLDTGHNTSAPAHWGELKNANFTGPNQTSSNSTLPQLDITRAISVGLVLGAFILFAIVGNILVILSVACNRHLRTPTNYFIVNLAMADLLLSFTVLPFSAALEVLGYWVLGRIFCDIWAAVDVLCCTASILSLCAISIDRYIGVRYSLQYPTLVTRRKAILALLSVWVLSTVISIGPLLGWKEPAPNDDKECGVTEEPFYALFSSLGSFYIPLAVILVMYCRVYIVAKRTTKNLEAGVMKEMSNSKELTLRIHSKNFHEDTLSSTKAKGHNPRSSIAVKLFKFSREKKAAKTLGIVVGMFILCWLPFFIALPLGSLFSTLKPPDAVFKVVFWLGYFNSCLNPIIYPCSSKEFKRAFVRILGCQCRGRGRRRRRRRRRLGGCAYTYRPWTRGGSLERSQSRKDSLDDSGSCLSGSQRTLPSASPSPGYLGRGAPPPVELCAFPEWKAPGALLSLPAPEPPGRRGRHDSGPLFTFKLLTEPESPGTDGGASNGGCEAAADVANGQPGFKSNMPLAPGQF
Description: as §1

α1D = target: T7, α1D (Homo sapiens, UniProt P25100); assay: biochemical; parameters: species or system HEK293; PDSP competitive radioligand binding, membranes of transfected HEK293 cells, filtration, Ki by Cheng-Prusoff
T7 construct: gene ADRA1D
T7 sequence (P25100 whole entry): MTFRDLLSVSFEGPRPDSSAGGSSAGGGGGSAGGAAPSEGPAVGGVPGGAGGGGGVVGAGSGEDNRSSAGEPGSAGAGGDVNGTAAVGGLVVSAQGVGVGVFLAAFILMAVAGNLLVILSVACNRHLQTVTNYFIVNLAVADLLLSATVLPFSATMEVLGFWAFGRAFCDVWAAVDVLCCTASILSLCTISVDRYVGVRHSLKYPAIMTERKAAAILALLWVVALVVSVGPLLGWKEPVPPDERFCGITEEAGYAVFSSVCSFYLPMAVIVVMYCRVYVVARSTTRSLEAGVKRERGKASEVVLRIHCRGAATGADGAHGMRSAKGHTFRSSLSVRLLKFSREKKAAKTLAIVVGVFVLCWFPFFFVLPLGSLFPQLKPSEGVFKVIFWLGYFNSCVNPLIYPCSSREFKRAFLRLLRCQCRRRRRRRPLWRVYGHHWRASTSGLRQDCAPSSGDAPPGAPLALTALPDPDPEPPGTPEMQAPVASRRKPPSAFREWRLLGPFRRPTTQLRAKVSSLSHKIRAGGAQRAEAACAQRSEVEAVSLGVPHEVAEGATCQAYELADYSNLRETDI
Description: as §1

β1 = target: T8, β1 (Homo sapiens, UniProt P08588); assay: biochemical; parameters: species or system HEK293; PDSP competitive radioligand binding, membranes of transfected HEK293 cells, filtration, Ki by Cheng-Prusoff
T8 construct: gene ADRB1
T8 sequence (P08588 whole entry): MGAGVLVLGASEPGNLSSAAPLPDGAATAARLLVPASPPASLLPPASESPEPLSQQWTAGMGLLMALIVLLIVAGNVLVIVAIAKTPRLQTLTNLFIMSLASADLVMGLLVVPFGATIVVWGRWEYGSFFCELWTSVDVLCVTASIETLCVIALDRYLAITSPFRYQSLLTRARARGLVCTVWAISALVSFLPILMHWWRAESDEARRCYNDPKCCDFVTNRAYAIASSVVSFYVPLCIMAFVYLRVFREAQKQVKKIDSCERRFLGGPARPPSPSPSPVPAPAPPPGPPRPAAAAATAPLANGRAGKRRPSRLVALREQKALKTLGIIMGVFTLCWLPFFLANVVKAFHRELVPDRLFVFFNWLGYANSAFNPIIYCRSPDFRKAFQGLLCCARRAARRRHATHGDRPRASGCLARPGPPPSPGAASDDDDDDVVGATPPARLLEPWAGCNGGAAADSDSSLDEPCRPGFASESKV
Description: as §1

[1] = read-out: N-desmethyl-xanomeline (PDSP) pKi (converted)

Row | Compound | Emax (CHRM5; HEK293, read-out: Xanomeline) | Ki (5-HT3) | Ki (DRD2) | Ki (DRD4) | Ki (MOR) | Ki (SERT) | Ki (α1B) | Ki (α1D) | Ki (β1) | Emax (CHRM5; HEK293, read-out: N-Desmethyl Xanomeline) | Ki (5-HT3; [1]) | Ki (DRD2; [1]) | Ki (DRD4; [1]) | Ki (MOR; [1]) | Ki (SERT; [1]) | Ki (α1B; [1]) | Ki (α1D; [1]) | Ki (β1; [1])
1 | CCCCCCOc1nsnc1C1=CCCN(C)C1 [Xanomeline] | 27.2% | > 10 µM | > 10 µM | 2 µM | > 10 µM | > 10 µM | > 10 µM | > 10 µM | > 10 µM |  |  |  |  |  |  |  |  | 
2 | CCCCCCOc1nsnc1C1=CCCNC1 [N-desmethylxanomeline] |  |  |  |  |  |  |  |  |  | 16.9% | 2.4 µM | 6.61 µM | > 10 µM | 7.94 µM | 1.62 µM | 7.24 µM | 3.31 µM | 8.71 µM
